Data reported in patent publication US9765075B2, “Substituted bridged urea analogs as sirtuin modulators” (GLAXOSMITHKLINE LLC, priority 2013, dated 2017).

Target: T1, SIRT1 (Homo sapiens, UniProt Q96EB6)
T1 sequence (Q96EB6 1-747): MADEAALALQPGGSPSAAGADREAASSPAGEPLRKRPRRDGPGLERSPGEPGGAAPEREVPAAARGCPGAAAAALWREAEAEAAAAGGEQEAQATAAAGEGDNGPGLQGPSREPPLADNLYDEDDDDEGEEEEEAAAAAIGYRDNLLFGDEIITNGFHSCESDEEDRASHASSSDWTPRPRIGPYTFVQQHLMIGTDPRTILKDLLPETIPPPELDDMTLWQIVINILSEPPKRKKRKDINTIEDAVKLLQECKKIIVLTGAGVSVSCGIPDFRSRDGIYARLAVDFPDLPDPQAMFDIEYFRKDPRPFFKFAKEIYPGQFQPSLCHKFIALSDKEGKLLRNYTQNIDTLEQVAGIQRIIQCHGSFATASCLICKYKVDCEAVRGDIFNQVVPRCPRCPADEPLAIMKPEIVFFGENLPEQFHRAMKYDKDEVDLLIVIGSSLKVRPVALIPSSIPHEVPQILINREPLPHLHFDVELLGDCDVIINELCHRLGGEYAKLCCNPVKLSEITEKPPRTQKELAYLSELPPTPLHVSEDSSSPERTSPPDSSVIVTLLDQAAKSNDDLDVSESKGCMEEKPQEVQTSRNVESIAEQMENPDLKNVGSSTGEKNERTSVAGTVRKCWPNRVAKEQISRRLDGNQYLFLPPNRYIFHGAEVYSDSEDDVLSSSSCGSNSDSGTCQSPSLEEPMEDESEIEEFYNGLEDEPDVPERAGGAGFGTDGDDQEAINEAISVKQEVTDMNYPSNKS
Test: Trp mass spectrometry assay (SIRT1 activation)
Type: biochemical
Details: Trp peptide substrate; for Tryp AVG EC1.5 (μM): concentration of test compound that results in 150% activation of SIRT1; for Emax: percent maximum fold activation of SIRT1, read-out: Tryp % Fold Act
Outline: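 Activation is expressed as EC1.5, the concentration raising activity 50% above DMSO control, and as maximum percent of control. Mass-spec readout was OAADPR or deacetylated Trp peptide after a formic-acid-quenched 25-min, 25 °C reaction: 10 nM bacterially expressed His-SIRT1, 0.5 μM acetyl-p53-derived peptide, 120 μM NAD+, pH 7.5 HEPES with […].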

SMILES	Tryp AVG EC1.5 (μM)	Emax
O=C(Nc1ccccn1)N1c2nc(-c3cccc(N4CCOCC4)c3)ccc2N2CCC[C@H]1C2 [Example 536]	B (EC1.5 1-25 μM)	≥ 150%
Cc1nc(NC(=O)N2c3nc(-c4cccc(N5CCOCC5)c4)ccc3N3CCC[C@H]2C3)sc1C [Example 537]	B (EC1.5 1-25 μM)	≥ 150%
O=C(Nc1cccnc1)N1c2nc(-c3cccc(N4CCOCC4)c3)ccc2N2CCC[C@H]1C2 [Example 538]	A (EC1.5<1 μM)	≥ 150%
O=C(Nc1cccnn1)N1c2nc(-c3cccc(N4CCOCC4)c3)ccc2N2CCC[C@H]1C2 [Example 539]	B (EC1.5 1-25 μM)	≥ 150%
Cc1cc(NC(=O)N2c3nc(-c4cccc(C(F)(F)F)c4)ccc3N3CC[C@H]2C3)cc(Br)n1 [Example 540]	A (EC1.5<1 μM)	≥ 150%
O=C(Nc1ccnc(Br)c1)N1c2nc(-c3cccc(C(F)(F)F)c3)ccc2N2CC[C@H]1C2 [Example 541]	A (EC1.5<1 μM)	≥ 150%
O=C(Nc1cncc(Br)c1)N1c2nc(-c3cccc(C(F)(F)F)c3)ccc2N2CC[C@H]1C2 [Example 542]	A (EC1.5<1 μM)	≥ 150%
O=C(Nc1cnccn1)N1c2nc(-c3cccc(Cl)c3)ccc2N2CCC1CC2 [Example 543]	B (EC1.5 1-25 μM)	≥ 150%
O=C(Nc1cccnc1)N1c2nc(-c3cncc(Cl)c3)ccc2N2CCC1CC2 [Example 544]	B (EC1.5 1-25 μM)	≥ 150%
O=C(Nc1cncc(F)c1)N1c2nc(-c3cncc(Cl)c3)ccc2N2CCC1CC2 [Example 545]	B (EC1.5 1-25 μM)	≥ 150%
O=C(CCCCCNC(=O)c1ccc(-c2c3ccc(=O)cc-3oc3cc(O)ccc23)c(C(=O)O)c1)NCc1ccc(NC(=O)N2c3nc(-c4cccc(C(F)(F)F)c4)ccc3N3CC[C@H]2C3)cc1 [Example 547]	C (EC1.5>25 μM)	< 150%
CC1(CCC(=O)NCc2ccc(NC(=O)N3c4nc(-c5cccc(C(F)(F)F)c5)ccc4N4CC[C@H]3C4)cc2)N=N1 [Example 548]	B (EC1.5 1-25 μM)	≥ 150%
O=C(Nc1cccnc1)N1c2nc(-c3cnn(-c4ccccc4)c3)ccc2N2CC[C@H]1C2 [Example 549]	B (EC1.5 1-25 μM)	≥ 150%
O=C(Nc1cnccn1)N1c2nc(-c3cncc(Cl)c3)ccc2N2CCC1CC2 [Example 550]	B (EC1.5 1-25 μM)	≥ 150%
O=C(Nc1ccccn1)N1c2nc(-c3cncc(Cl)c3)ccc2N2CCC1CC2 [Example 551]	B (EC1.5 1-25 μM)	≥ 150%
COc1cc(NC(=O)N2c3nc(-c4cncc(Cl)c4)ccc3N3CCC2CC3)ncn1 [Example 552]	C (EC1.5>25 μM)	< 150%
COc1cc(NC(=O)N2c3nc(-c4cncc(Cl)c4)ccc3N3CCC2CC3)nc(OC)n1 [Example 553]	B (EC1.5 1-25 μM)	≥ 150%
Cc1nc(NC(=O)N2c3nc(-c4cncc(Cl)c4)ccc3N3CCC2CC3)sc1C [Example 554]	B (EC1.5 1-25 μM)	≥ 150%
O=C(Nc1cnccn1)N1c2nc(-c3cncc(F)c3)ccc2N2CCC1CC2 [Example 555]	B (EC1.5 1-25 μM)	≥ 150%
O=C(Nc1cccnc1)N1c2nc(-c3cncc(C(F)(F)F)c3)ccc2N2CC[C@H]1C2 [Example 556]	A (EC1.5<1 μM)	≥ 150%
N#Cc1cncc(-c2ccc3c(n2)N(C(=O)Nc2ccccn2)[C@H]2CCCN3C2)c1 [Example 557]	A (EC1.5<1 μM)	≥ 150%
N#Cc1cncc(-c2ccc3c(n2)N(C(=O)Nc2ccncn2)[C@H]2CCCN3C2)c1 [Example 558]	B (EC1.5 1-25 μM)	≥ 150%
O=C(Nc1cncc(F)c1)N1c2nc(-c3cccc(N4CCOCC4)c3)ccc2N2CCC[C@H]1C2 [Example 559]	A (EC1.5<1 μM)	≥ 150%
O=C(Nc1cnccn1)N1c2nc(-c3cccc(N4CCOCC4)c3)ccc2N2CCC[C@H]1C2 [Example 560]	B (EC1.5 1-25 μM)	≥ 150%

SMILES	Tryp AVG EC1.5 (μM)	Emax
Cc1cc(-c2ccc3c(n2)N(C(=O)Nc2cnc(OC[C@@H](O)CO)cn2)[C@H]2CCN3C2)ccn1 [Example 561]	B (EC1.5 1-25 μM)	≥ 150%
O=C(Nc1cc(Br)cc(-c2cnco2)c1)N1c2nc(-c3cccc(C(F)(F)F)c3)ccc2N2CC[C@H]1C2 [Example 562]	A (EC1.5<1 μM)	≥ 150%
O=C(O)c1cc(NC(=S)NCc2ccc(NC(=O)N3c4nc(-c5cccc(C(F)(F)F)c5)ccc4N4CCC[C@H]3C4)cc2)ccc1-c1c2ccc(=O)cc-2oc2cc(O)ccc12 [Example 563]	A (EC1.5<1 μM)	≥ 150%
Cc1nc(NC(=O)N2c3nc(-c4cccc(Cl)c4)ccc3N3CCC2CC3)sc1C [Example 569]	B (EC1.5 1-25 μM)	≥ 150%
O=C(Nc1ccccn1)N1c2nc(-c3cncc(F)c3)ccc2N2CCC1CC2 [Example 570]	B (EC1.5 1-25 μM)	≥ 150%
O=C(Nc1cncc(F)c1)N1c2nc(-c3cncc(F)c3)ccc2N2CCC1CC2 [Example 571]	B (EC1.5 1-25 μM)	≥ 150%
O=C(Nc1cccnc1)N1c2nc(-c3cncc(F)c3)ccc2N2CCC1CC2 [Example 572]	B (EC1.5 1-25 μM)	≥ 150%
O=C(Nc1ccncn1)N1c2nc(-c3cncc(F)c3)ccc2N2CCC1CC2 [Example 573]	C (EC1.5>25 μM)	< 150%
O=C(Nc1cccc(-c2cnco2)c1)N1c2nc(-c3cncc(F)c3)ccc2N2CCC1CC2 [Example 574]	A (EC1.5<1 μM)	≥ 150%
O=C(Nc1cccc(-c2cnco2)c1)N1c2nc(-c3cncc(Cl)c3)ccc2N2CCC1CC2 [Example 575]	A (EC1.5<1 μM)	≥ 150%
O=C(Nc1ccncn1)N1c2nc(-c3cncc(Cl)c3)ccc2N2CCC1CC2 [Example 576]	B (EC1.5 1-25 μM)	≥ 150%
Cc1nc(NC(=O)N2c3nc(-c4cncc(F)c4)ccc3N3CCC2CC3)sc1C [Example 577]	B (EC1.5 1-25 μM)	≥ 150%
COc1cc(NC(=O)N2c3nc(-c4cncc(F)c4)ccc3N3CCC2CC3)nc(OC)n1 [Example 578]	B (EC1.5 1-25 μM)	≥ 150%
COc1cc(NC(=O)N2c3nc(-c4cncc(F)c4)ccc3N3CCC2CC3)ncn1 [Example 579]	B (EC1.5 1-25 μM)	≥ 150%
O=C(Nc1ccc(-n2cncn2)cc1)N1c2nc(-c3cccc(C(F)(F)F)c3)ccc2N2CC[C@H]1C2 [Example 580]	A (EC1.5<1 μM)	≥ 150%
O=C(Nc1cccc(-n2cncn2)c1)N1c2nc(-c3cccc(C(F)(F)F)c3)ccc2N2CC[C@H]1C2 [Example 581]	A (EC1.5<1 μM)	≥ 150%
Cc1ccc(-c2ccc(NC(=O)N3c4nc(-c5cccc(C(F)(F)F)c5)ccc4N4CC[C@H]3C4)cc2)o1 [Example 582]	B (EC1.5 1-25 μM)	≥ 150%
Cc1nc(-c2cccc(NC(=O)N3c4nc(-c5cccc(C(F)(F)F)c5)ccc4N4CC[C@H]3C4)c2)cs1 [Example 583]	A (EC1.5<1 μM)	≥ 150%
O=C(Nc1cccnc1)N1c2nc(-c3cnn(C4CCCC4)c3)ccc2N2CC[C@H]1C2 [Example 587]	B (EC1.5 1-25 μM)	≥ 150%
O=C(Nc1cccc(-c2cnco2)n1)N1c2nc(-c3cccc(C(F)(F)F)c3)ccc2N2CC[C@H]1C2 [Example 588]	A (EC1.5<1 μM)	≥ 150%
O=C(Nc1cc(-c2cnco2)ccn1)N1c2nc(-c3cccc(C(F)(F)F)c3)ccc2N2CC[C@H]1C2 [Example 589]	A (EC1.5<1 μM)	≥ 150%
O=C(Nc1cccc(-c2cnco2)n1)N1c2nc(-c3cccc(C(F)(F)F)c3)ccc2N2CCC[C@H]1C2 [Example 590]	A (EC1.5<1 μM)	≥ 150%
O=C(Nc1cc(-c2cnco2)ccn1)N1c2nc(-c3cccc(C(F)(F)F)c3)ccc2N2CCC[C@H]1C2 [Example 591]	A (EC1.5<1 μM)	≥ 150%
CC(C)(C)OC(=O)N1CCC(c2cccc(NC(=O)N3c4nc(-c5cccc(C(F)(F)F)c5)ccc4N4CC[C@H]3C4)c2)C1 (stereo partly drawn) [Example 592]	A (EC1.5<1 μM)	≥ 150%
